Source: patent US8524917B2, “6-substituted indole-3-carboxylic acid amide compounds having sphingosine-1-phosphate (S1P) receptor antagonist biological activity” (Allergan, Inc., priority 2007, dated 2013)
Where two headings read alike, the source gives them in different places.

Molecular target: human S1P3 receptor (Homo sapiens (Human), UniProt Q99500)
Test: Activation or block of activation of human S1P3 receptor, Ca+2 FLIPR assay
Format: cell-based
Settings: for IC50: read-out: S1P3 IC50
How it was run: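 T24 cells stably expressing human S1P3, grown in charcoal-treated FBS, dye-loaded and read on FLIPR for calcium after ligand addition in HBSS/20 mM HEPES (1 s readings for 75 s, then every 10 s for 2.5 min). Agonist or antagonist mode; S1P positive control in 4 mg/ml fatty-acid-free BSA. IC50 by Levenberg–Marquardt regression.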

[1] = T24 cells stably expressing the human S1P3 receptor, FLIPR Ca+2 response, 0.61 nM to 10,000 nM
[2] = T24 cells stably expressing the human S1P3 receptor, value in brackets

Chain of human S1P3 receptor (Q99500 whole entry): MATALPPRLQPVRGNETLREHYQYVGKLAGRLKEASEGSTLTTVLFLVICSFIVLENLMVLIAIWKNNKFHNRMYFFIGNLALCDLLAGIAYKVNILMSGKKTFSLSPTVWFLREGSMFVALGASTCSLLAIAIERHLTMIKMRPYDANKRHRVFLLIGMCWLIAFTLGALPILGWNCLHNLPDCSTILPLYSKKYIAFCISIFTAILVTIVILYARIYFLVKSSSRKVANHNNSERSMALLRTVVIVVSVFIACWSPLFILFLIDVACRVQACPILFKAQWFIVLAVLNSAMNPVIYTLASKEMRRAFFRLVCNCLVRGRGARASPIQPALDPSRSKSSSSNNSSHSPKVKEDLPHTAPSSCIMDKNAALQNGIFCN

Row | SMILES | IC50 [1] | S1P3 (% inh) [2] | S1P3 (% inh) | IC50
1 | CC(C)c1c(C(=O)NCc2ccc(F)c(F)c2)c2ccc(C3=N[C@@H](C)CO3)cc2n1Cc1cccnc1 [Compound 82, (S)—N-(3,4-Difluorobenzyl)-2-isopropyl-6-(4-methyl-4,5-dihydrooxazol-2-yl)-1-(pyridin-3-ylmethyl)-1H-indole-3-carboxamide] | 44 nM | 100% |  | 
2 | CC[C@H]1COC(c2ccc3c(C(=O)NCc4ccc(F)c(F)c4)c(C(C)C)n(Cc4ncco4)c3c2)=N1 [Compound 83, (S)—N-(3,4-Difluorobenzyl)-6-(4-ethyl-4,5-dihydrooxazol-2-yl)-2-isopropyl-1-(oxazol-2-ylmethyl)-1H-indole-3-carboxamide] | 280 nM | 99% |  | 
3 | CC(C)c1c(C(=O)NCc2cc(F)cc(F)c2)c2ccc(C3=N[C@@H](C)CO3)cc2n1Cc1ccccn1 [Compound 84, (S)—N-(3,5-Difluorobenzyl)-2-isopropyl-6-(4-methyl-4,5-dihydrooxazol-2-yl)-1-(pyridin-2-ylmethyl)-1H-indole-3-carboxamide] | 40 nM | 89% |  | 
4 | CC[C@H]1COC(c2ccc3c(C(=O)NCc4cc(F)cc(F)c4)c(C(C)C)n(Cc4ccccn4)c3c2)=N1 [Compound 85, (S)—N-(3,5-Difluorobenzyl)-6-(4-ethyl-4,5-dihydrooxazol-2-yl)-2-isopropyl-1-(pyridin-2-ylmethyl)-1H-indole-3-carboxamide] | 18 nM | 100% |  | 
5 | CC(C)c1c(C(=O)NCc2ccc(F)cc2)c2ccc(C3=N[C@@H](C)CO3)cc2n1Cc1ccccn1 [Compound 86, (S)—N-(4-Fluorobenzyl)-2-isopropyl-6-(4-methyl-4,5-dihydrooxazol-2-yl)-1-(pyridin-2-ylmethyl)-1H-indole-3-carboxamide] | 48 nM | 100% |  | 
6 | CC(C)c1c(C(=O)NCc2ccc(F)c(F)c2)c2ccc(-c3nnco3)cc2n1Cc1ccccc1 [Compound 89, 1-Benzyl-N-(3,4-difluorobenzyl)-2-isopropyl-6-(1,3,4-oxadiazol-2-yl)-1H-indole-3-carboxamide] | 59 nM | 98% |  | 
7 | CC(C)Oc1ccc2c(C(=O)NCc3ccc(F)c(F)c3)c(CN(C)C)n(Cc3ccccn3)c2c1 [Compound 98, N-(3,4-Difluorobenzyl)-2-((dimethylamino)methyl)-6-isopropoxy-1-(pyridin-2-ylmethyl)-1H-indole-3-carboxamide] | 632 nM | 100% |  | 
8 | CC(C)Oc1ccc2c(C(=O)NCc3ccc(F)c(F)c3)c(C3=NCCO3)n(Cc3ccccn3)c2c1 [Compound 104, N-(3,4-Difluorobenzyl)-2-(4,5-dihydrooxazol-2-yl)-6-isopropoxy-1-(pyridin-2-ylmethyl)-1H-indole-3-carboxamide] | 3900 nM | 50% |  | 
9 | CC(C)Oc1ccc2c(C(=O)NCc3ccc(F)c(F)c3)c(C=O)n(Cc3ccccn3)c2c1 [Compound 105, N-(3,4-Difluorobenzyl)-2-formyl-6-isopropoxy-1-(pyridin-2-ylmethyl)-1H-indole-3-carboxamide] | 485 nM | 98% |  | 
10 | CC(C)Oc1ccc2c(C(=O)NCc3ccc(F)c(F)c3)c(CO)n(Cc3ccccn3)c2c1 [Compound 106, N-(3,4-Difluorobenzyl)-2-(hydroxymethyl)-6-isopropoxy-1-(pyridin-2-ylmethyl)-1H-indole-3-carboxamide] | 689 nM | 96% |  | 
11 | CC(C)Oc1ccc2c(C(=O)NCc3ccc(F)c(F)c3)c(C(C)O)n(Cc3ccccn3)c2c1 (stereo not drawn) [Compound 108, N-(3,4-Difluorobenzyl)-2-(1-hydroxyethyl)-6-isopropoxy-1-(pyridin-2-ylmethyl)-1H-indole-3-carboxamide] | 15 nM | 98% |  | 
12 | CC(=O)c1c(C(=O)NCc2ccc(F)c(F)c2)c2ccc(OC(C)C)cc2n1Cc1ccccn1 [Compound 109, 2-Acetyl-N-(3,4-difluorobenzyl)-6-isopropoxy-1-(pyridin-2-ylmethyl)-1H-indole-3-carboxamide] | 21 nM | 99% |  | 
13 | CC(C)c1c(C(=O)NCc2ccc(F)c(F)c2)c2ccc([N+](=O)[O-])cc2n1Cc1ccccc1 [Compound 124, 1-Benzyl-N-(3,4-difluorobenzyl)-2-isopropyl-6-nitro-1H-indole-3-carboxamide] |  |  | 242 nM (90) % | 242 nM
14 | CC(C)c1c(C(=O)NCc2ccc(F)c(F)c2)c2ccc(N)cc2n1Cc1ccccc1 [Compound 125, 6-Amino-1-benzyl-N-(3,4-difluorobenzyl)-2-isopropyl-1H-indole-3-carboxamide] | 1700 nM | 90% |  | 
15 | CC(C)c1c(C(=O)NCc2ccc(F)c(F)c2)c2ccc(NC3CCOC3)cc2n1Cc1ccccc1 (stereo not drawn) [Compound 126, 1-Benzyl-N-(3,4-difluorobenzyl)-2-isopropyl-6-(tetrahydrofuran-3-ylamino)-1H-indole-3-carboxamide] | 177 nM | 100% |  | 
16 | CC(C)C(=O)Nc1ccc2c(C(=O)NCc3ccc(F)c(F)c3)c(C(C)C)n(Cc3ccccc3)c2c1 [Compound 127, 1-Benzyl-N-(3,4-difluorobenzyl)-6-isobutyramido-2-isopropyl-1H-indole-3-carboxamide] | 890 nM | 97% |  | 
17 | CC(C)c1c(C(=O)NCc2ccc(F)c(F)c2)c2ccc(N3CCCC3=O)cc2n1Cc1ccccc1 [Compound 128, 1-Benzyl-N-(3,4-difluorobenzyl)-2-isopropyl-6-(2-oxopyrrolidin-1-yl)-1H-indole-3-carboxamide] | 502 nM | 99% |  | 
18 | CC(C)c1c(C(=O)NCc2ccc(F)c(F)c2)c2ccc(NC3CCCC3)cc2n1Cc1ccccc1 [Compound 130, 1-Benzyl-6-(cyclopentylamino)-N-(3,4-difluorobenzyl)-2-isopropyl-1H-indole-3-carboxamide] | 44 nM | 99% |  | 
19 | CC(C)c1c(C(=O)NCc2ccc(F)c(F)c2)c2ccc(OCc3ncco3)cc2n1Cc1ccccc1 [Compound 131, 1-Benzyl-N-(3,4-difluorobenzyl)-2-isopropyl-6-(1,3-oxazol-2-ylmethoxy)-1H-indole-3-carboxamide] | 890 nM | 96% |  | 
20 | CC(C)c1c(C(=O)NCc2ccc(F)c(F)c2)c2ccc(OC3CCOCC3)cc2n1Cc1ccccc1 [Compound 133, 1-Benzyl-N-(3,4-difluorobenzyl)-2-isopropyl-6-(tetrahydro-2H-pyran-4-yloxy)-1H-indole-3-carboxamide] |  |  | 36 nM (99) % | 36 nM
21 | CC(C)c1c(C(=O)NCc2ccc(C(F)(F)F)nc2)c2ccc(OC3CCCC3)cc2n1Cc1ccccn1 [Compound 142, 6-(Cyclopentyloxy)-2-isopropyl-1-(pyridin-2-ylmethyl)-N-((6-(trifluoromethyl)pyridin-3-yl)methyl)-1H-indole-3-carboxamide] | 48 nM | 99% |  | 
22 | CC(C)c1c(C(=O)NCc2ccc(F)c(F)c2)c2ccc(OC3CCOCC3)cc2n1Cc1ccccn1 [Compound 143, N-(3,4-Difluorobenzyl)-2-isopropyl-1-(pyridin-2-ylmethyl)-6-(tetrahydro-2H-pyran-4-yloxy)-1H-indole-3-carboxamide] | 36 nM | 99% |  | 
23 | CC(C)c1c(C(=O)NCc2cncc(F)c2)c2ccc(OC3CCCC3)cc2n1Cc1ccccn1 [Compound 148, 6-(Cyclopentyloxy)-N-((5-fluoropyridin-3-yl)methyl)-2-isopropyl-1-(pyridin-2-ylmethyl)-1H-indole-3-carboxamide] |  |  | 13 nM (100) % | 13 nM
24 | CC(C)COc1ccc2c(C(=O)NCc3cncc(F)c3)c(C(C)C)n(Cc3ccccn3)c2c1 [Compound 149, N-((5-Fluoropyridin-3-yl)methyl)-6-isobutoxy-2-isopropyl-1-(pyridin-2-ylmethyl)-1H-indole-3-carboxamide] | 29 nM | 100% |  | 
25 | CC(C)c1c(C(=O)NCc2ccc(F)c(F)c2)c2ccc(Oc3nccs3)cc2n1Cc1ccccn1 [Compound 150, N-(3,4-Difluorobenzyl)-2-isopropyl-1-(pyridin-2-ylmethyl)-6-(thiazol-2-yloxy)-1H-indole-3-carboxamide] | 5 nM | 100% |  | 
26 | CC(C)c1c(C(=O)NCc2ccc(F)c(F)c2)c2ccc(O)cc2n1Cc1cccnc1 [Compound 151, N-(3,4-Difluorobenzyl)-6-hydroxy-2-isopropyl-1-(pyridin-3-ylmethyl)-1H-indole-3-carboxamide] |  |  | 65 nM (98) % | 65 nM
27 | CC(C)c1c(C(=O)NCc2ccc(F)c(F)c2)c2ccc(Oc3nccs3)cc2n1Cc1cccnc1 [Compound 152, N-(3,4-Difluorobenzyl)-2-isopropyl-1-(pyridin-3-ylmethyl)-6-(thiazol-2-yloxy)-1H-indole-3-carboxamide] | 17 nM | 97% |  | 
28 | CC(C)c1c(C(=O)NCc2ccc(F)c(F)c2)c2ccc(OC3CCCC3)cc2n1Cc1cccnc1 [Compound 153, 6-(Cyclopentyloxy)-N-(3,4-difluorobenzyl)-2-isopropyl-1-(pyridin-3-ylmethyl)-1H-indole-3-carboxamide] |  |  | 5 nM (99) % | 5 nM
29 | CC(C)Oc1ccc2c(C(=O)NCc3ccc(F)c(F)c3)c(C(C)C)n(Cc3cccnc3)c2c1 [Compound 154, N-(3,4-Difluorobenzyl)-6-isopropoxy-2-isopropyl-1-(pyridin-3-ylmethyl)-1H-indole-3-carboxamide] | 15 nM | 100% |  | 
30 | CC(C)Cn1c(C(C)C)c(C(=O)NCc2ccc(F)c(F)c2)c2ccc(OC3CCCC3)cc21 [Compound 159, 6-(Cyclopentyloxy)-N-(3,4-difluorobenzyl)-1-isobutyl-2-isopropyl-1H-indole-3-carboxamide] | 41 nM | 96% |  | 
